Test results reported in patent publication US11866433B2, “Diarylthiohydantoin compound as androgen receptor antagonist” (CHIA TAI TIANQING PHARMACEUTICAL GROUP CO., LTD., priority 2017, dated 2024).

Target: T1, androgen receptor (AR) (Homo sapiens, UniProt P10275)
T1 sequence (P10275 1-920): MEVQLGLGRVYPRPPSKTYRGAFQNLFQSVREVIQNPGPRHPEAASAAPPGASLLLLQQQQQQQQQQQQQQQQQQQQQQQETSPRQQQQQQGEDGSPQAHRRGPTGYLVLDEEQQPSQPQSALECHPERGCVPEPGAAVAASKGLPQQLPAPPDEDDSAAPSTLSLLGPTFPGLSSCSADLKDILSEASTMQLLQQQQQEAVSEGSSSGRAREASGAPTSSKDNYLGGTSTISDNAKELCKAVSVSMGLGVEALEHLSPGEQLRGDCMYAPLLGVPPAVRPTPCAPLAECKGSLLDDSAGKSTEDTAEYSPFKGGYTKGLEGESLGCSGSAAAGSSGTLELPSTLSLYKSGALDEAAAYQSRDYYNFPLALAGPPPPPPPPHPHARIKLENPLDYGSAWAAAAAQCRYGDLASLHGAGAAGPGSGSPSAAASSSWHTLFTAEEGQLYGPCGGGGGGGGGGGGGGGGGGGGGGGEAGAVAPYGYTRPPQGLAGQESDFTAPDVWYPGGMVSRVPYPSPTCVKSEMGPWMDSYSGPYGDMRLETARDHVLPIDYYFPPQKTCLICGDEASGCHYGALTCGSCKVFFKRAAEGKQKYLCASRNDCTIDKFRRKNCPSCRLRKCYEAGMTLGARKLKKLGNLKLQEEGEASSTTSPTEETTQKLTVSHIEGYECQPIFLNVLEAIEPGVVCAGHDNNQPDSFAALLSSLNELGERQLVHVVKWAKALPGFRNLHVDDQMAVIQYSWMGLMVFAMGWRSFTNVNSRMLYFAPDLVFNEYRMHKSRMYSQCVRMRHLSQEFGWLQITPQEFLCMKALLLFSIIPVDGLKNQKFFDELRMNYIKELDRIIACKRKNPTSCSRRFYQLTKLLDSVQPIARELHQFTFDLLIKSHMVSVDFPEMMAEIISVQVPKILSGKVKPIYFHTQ
Assay: Antagonism of compounds on nuclear translocation of androgen receptor (PathHunter NHR cell lines)
Type: cell-based
Details: antagonist mode, agonist 6a-Fluorotestosterone 0.06 μM (EC80)
Description: Example 75 Test of Antagonism of Compounds on Nuclear Translocation of Androgen Receptor (AR)
1. PathHunter NHR cell lines were recovered and cultured for amplification.
2. The cells were inoculated onto a 384-well plate prior to testing, and incubated at 37° C. The serum for culture was filtered with charcoal-dextran to reduce the hormone level therein.
3. In the detection of the antagonistic function, a compound was added to the cells and incubated for 60 min. The working concentration of the test compound was diluted from 10 μM at a 3-fold concentration gradient, respectively including: […]. Then, an agonist 6a-Fluorotestosterone 0.06 μM (concentration: EC80, i.e., 80% agonistic compound concentration) was added, and the mixture was incubated at 37° C. or at room temperature for 3-16 h.
4. Signal detection: 12.5 μL or 15 μL (50%, v/v) PathHunter detection mixed solution (kit: DiscoverX product catalog number: 93-0001 series) was added, and incubated at room temperature for 1 h. The chemiluminescent signal was read with a PerkinElmer Envision™ instrument.
5. Data analysis: The compound activity was analyzed with CBIS data analysis software (ChemInnovation, CA). The calculation formula of the inhibition percent of the antagonist is as follows: IC50 inhibition ratio (%)=[…]×(1−(average RLU value of the test compound−average RLU value of the blank control group)/(average RLU value of EC80 control group−average RLU value of the blank control group)).

Structure (SMILES)	IC50 [µM]
CC1(C)C(=O)N(c2ccc(C#N)c(C(F)(F)F)c2)C(=S)N1c1ccc2nc(OCCO)ncc2c1 [Compound 14]	4.9
CCc1nc(OCCO)c2cc(N3C(=S)N(c4ccc(C#N)c(C(F)(F)F)c4)C(=O)C34CCC4)cc(F)c2n1 [Compound 20]	1.56
CCc1nc2c(F)cc(N3C(=S)N(c4ccc(C#N)c(C(F)(F)F)c4)C(=O)C3(C)C)cn2c(=O)c1OCC(N)=O [Compound 43]	3.5
CCc1nc(OCCO)c2cc(N3C(=S)N(c4ccc(C#N)c(C(F)(F)F)c4)C(=O)C34CCC4)ccc2n1 [Compound 17]	0.65
CCc1nc(OC2COC[C@@H]2O)c2cc(N3C(=S)N(c4ccc(C#N)c(C(F)(F)F)c4)C(=O)C3(C)C)cc(F)c2n1 (some centres unmarked) [Compound 46]	3.08
CCOc1nc(OCCO)c2cc(N3C(=S)N(c4ccc(C#N)c(C(F)(F)F)c4)C(=O)C3(C)C)cc(F)c2n1 [Compound 70]	4.27
CCc1nc(-c2c[nH]cn2)c2cc(N3C(=S)N(c4ccc(C#N)c(C(F)(F)F)c4)C(=O)C3(C)C)cc(F)c2n1 [Compound 63]	1.34
CC1(C)C(=O)N(c2ccc(C#N)c(C(F)(F)F)c2)C(=S)N1c1cc(F)c2nc(C(F)F)nc(OCCO)c2c1 [Compound 21]	1.89
CC(F)(F)c1nc(OCCO)c2cc(N3C(=S)N(c4ccc(C#N)c(C(F)(F)F)c4)C(=O)C3(C)C)cc(F)c2n1 [Compound 49]	1.43
CCc1nc(OCC2(O)CC2)c2cc(N3C(=S)N(c4ccc(C#N)c(C(F)(F)F)c4)C(=O)C3(C)C)cc(F)c2n1 [Compound 36]	5.65
CCc1nc2c(F)cc(N3C(=S)N(c4ccc(C#N)c(C(F)(F)F)c4)C(=O)C3(C)C)cn2c(=O)c1F [Compound 47]	2.57
CC1(C)C(=O)N(c2cnc(C#N)c(C(F)(F)F)c2)C(=S)N1c1cc(F)c2nc(C(F)F)nc(OCCO)c2c1 [Compound 26]	1.71
CNC(=O)c1ccc(-n2c(=S)n(-c3ccc(C#N)c(C(F)(F)F)c3)c3ncccc32)cc1F [Compound 2]	> 10
CC1(C)C(=O)N(c2ccc(C#N)c(C(F)(F)F)c2)C(=S)N1c1cc(F)c2nc(C3CC3)nc(OCCO)c2c1 [Compound 18]	2.84
CCc1nc(OC2COC[C@H]2O)c2cc(N3C(=S)N(c4ccc(C#N)c(C(F)(F)F)c4)C(=O)C3(C)C)cc(F)c2n1 (some centres unmarked) [Compound 44]	3.76
CNC(=O)c1ccc(-n2c(=S)n(-c3ccc(C#N)c(C(F)(F)F)c3)c3nccc(C)c32)cc1F [Compound 3]	1.4
CCc1nc2c(F)cc(N3C(=S)N(c4ccc(C#N)c(C(F)(F)F)c4)C(=O)C3(C)C)cn2c(=O)c1OCCO [Compound 41]	2.75
CCN1CCOc2cc(N3C(=O)N(c4ccc(C#N)c(C(F)(F)F)c4)C(=O)C3(C)C)ccc2C1=O [Compound 4]	2.19
CCc1cc(=O)n2cc(N3C(=S)N(c4ccc(C#N)c(F)c4)C(=O)C3(C)C)cc(F)c2n1 [Compound 59]	8.92
CCc1nc(-c2cc[nH]n2)c2cc(N3C(=S)N(c4ccc(C#N)c(C(F)(F)F)c4)C(=O)C3(C)C)cc(F)c2n1 [Compound 52]	1.23
CC1(C)C(=O)N(c2ccc(C#N)c(C(F)(F)F)c2)C(=S)N1c1ccc2nc(C3CC3)nc(OCCO)c2c1 [Compound 11]	1.14
CCc1nc2c(F)cc(N3C(=S)N(c4ccc(C#N)c(C(F)(F)F)c4)C(=O)C3(C)C)cn2c(=O)c1OCC(=O)NC [Compound 42]	2.2
CCc1cc(=O)n2cc(N3C(=S)N(c4ccc(C#N)c(C(F)(F)F)c4)C(=O)C3(C)C)cc(Cl)c2n1 [Compound 61]	1.45
CC1(C)C(=O)N(c2ccc(C#N)c(C(F)(F)F)c2)C(=S)N1c1ccc2nn(C3COCC3O)cc2c1 (centres unmarked) [Compound 8]	4.27
CC1(C)C(=O)N(c2ccc(C#N)c(C(F)(F)F)c2)C(=S)N1c1ccc2nc(C(F)F)nc(OCCO)c2c1 [Compound 15]	1.12
CCc1nc(OCC(N)=O)c2cc(N3C(=S)N(c4ccc(C#N)c(C(F)(F)F)c4)C(=O)C3(C)C)cc(F)c2n1 [Compound 32]	6.76
